pIC50: −log10 of the molar value. Where two headings read alike, the source gives them in different places.
Tests used:
[1] = system: PC3, BxPC3, and BT474 xenograft lines; conditions: no tumor regressions; cited from earlier work
[2] = system: unresectable stage IIIC or IV cutaneous melanoma with BRAF V600E or V600K mutation; conditions: cited from earlier work
[3] = design: method as in ref 17 (a number printed in a supplementary file, which may have a reference list of its own: not looked up in the article's list); conditions: cited from earlier work
[4] = system: HCT-116 xenograft; design: method as in ref 17 (a number printed in a supplementary file, which may have a reference list of its own: not looked up in the article's list); conditions: cited from earlier work
[5] = target: pMEK1 kinase activity; design: method as in ref 19 (a number printed in a supplementary file, which may have a reference list of its own: not looked up in the article's list); conditions: cited from earlier work
[6] = system: rabbits; conditions: rabbit, in vivo; cited from earlier work
[7] = system: CYP enzymes; conditions: cited from earlier work
[8] = cited from earlier work
[9] = 25° C; cited from earlier work
[10] = system: acute myeloid leukemia or myelodysplastic syndrome; conditions: cited from earlier work
[11] = clinical; conditions: human, 2 mg
[12] = system: CYP enzymes; BCRP, MRP2, OATP1B1, OATP1B3, OATP2B1, OCT1, MATE1, P-gp, BSEP; conditions: cited from earlier work
[13] = system: BRAF V600E or V600K mutation-positive melanoma; conditions: 40 patients with prior BRAF inhibitor; 2 mg PO QD; cited from earlier work
[14] = system: pERK; design: method as in ref 17 (a number printed in a supplementary file, which may have a reference list of its own: not looked up in the article's list); conditions: cited from earlier work
[15] = trametinib and its metabolites; cited from earlier work
[16] = system: melanoma, pancreatic cancer, CRC; conditions: cited from earlier work
[17] = system: panel of 183 kinases, including MEK5, CRAF, BRAF, ERK1, and ERK2; design: method as in ref 18 (a number printed in a supplementary file, which may have a reference list of its own: not looked up in the article's list); conditions: cited from earlier work
[18] = system: A549 xenograft; design: method as in ref 17 (a number printed in a supplementary file, which may have a reference list of its own: not looked up in the article's list); conditions: cited from earlier work
[19] = system: patients with solid tumors or lymphoma; design: method as in ref 20 (a number printed in a supplementary file, which may have a reference list of its own: not looked up in the article's list); conditions: cited from earlier work
[20] = cited from earlier work; remark: listed apart in the source
[21] = system: pERK, Ki67, and p27; design: method as in ref 19 (a number printed in a supplementary file, which may have a reference list of its own: not looked up in the article's list); conditions: 2 mg QD, cited from earlier work
[22] = system: MRP2, BSEP, P-gp, BCRP, OATP1B1, OATP1B3, OAT1, OAT3, OCT2, MATE1; conditions: cited from earlier work
[23] = system: patients in clinical trials of trametinib; conditions: cited from earlier work
[24] = 13 patients with KRAS or NRAS mutations
[25] = 2 mg monotherapy, 96 total patients

CC(=O)Nc1cccc(-n2c(=O)n(C3CC3)c(=O)c3c(Nc4ccc(I)cc4F)n(C)c(=O)c(C)c32)c1 [Trametinib, equimolecular combination of acetamide, N-[3-[3-cyclopropyl-5-[(2-fluoro-4-iodophenyl)amino]-3,4,6,7-tetrahydro6,8-dimethyl-2,4,7-trioxopyrido[4,3-d]pyrimidin-1(2H)-yl]phenyl] with 1,1’-sulfinylbis[methane]]
TGI [1]: 44-46% | CR, n (%) [2]: 4 (2%) n (%) | Duration of response Median, months (95% CI) [2]: 5.5 (4.1, 5.9) months | Objective Response Rate (95% CI) [2]: 22% | PR, n (%) [2]: 43 (20%) n (%) | 6-month OS rate ([2]; in vivo): 81% | PFS Median, months (95% CI) ([2]; investigator-assessed): 4.8 (4.3, 4.9) months | PFS HR (95% CI) ([2]; trametinib vs chemotherapy, P<0.0001): 0.47 (0.34, 0.65) | Cmax ([3]; Day 7, 3 mg/kg, read-out: average Cmax in blood): 1410 nM | estimated half-life (t1/2) ([3]; mice): 33 h | TGI [4]: 83% | pIC50 [5]: 7.89 | Embryofetal toxicity [6]: embryotoxic and abortifacient | inhibitor of CYP 1A2, 2A6, 2B6, 2C9, 2C19, 2D6 and 3A4 [7]: not an inhibitor | inhibitor of CYP1A2, CYP2A6, CYP2B6, CYP2D6, and CYP3A4 ([7]; in vitro studies): not an inhibitor | inhibitor of CYP 2C8 ([7]; in vitro): in vitro inhibitor | difference in exposure, mild hepatic impairment vs normal hepatic function ([8]; 64 ([…]) subjects with mild hepatic impairment (NCI classification)): 2% | oral clearance and exposure, mild hepatic impairment vs normal hepatic function ([8]; population PK analysis): not significantly different | Approximate Solubility in water [9]: < 100 ng/mL | best response CRs [10, 24]: 3 | best response PD [10, 24]: 1 | best response SD [10, 24]: 7 | PRs ([10]; 26 patients with wild-type RAS or unknown mutation): 2 | patients withdrew due to an AE ([10]; AML or MDS, 1-2 mg QD): 23% | Cmax ([11]; in vivo): 27.6 ng/mL | AUC(0-t) ([11]; plasma, oral, AUC0 − 24, Geo mean (%CV), Mild (n = 6), dose normalized to 2 mg): 352 ng·h/mL | AUC(0-t) ([11]; plasma, oral, AUC0 − 24, Geo mean (%CV), Mod (n = 3), dose normalized to 2 mg): 311 ng·h/mL | AUC(0-t) ([11]; plasma, oral, AUC0 − 24, Geo mean (%CV), Sev (n = 3), dose normalized to 2 mg): 229 ng·h/mL | AUC(0-t) ([11]; plasma, oral, AUC0 − 24, Mean (±SD), Mild (n = 6), dose normalized to 2 mg): 388 ng·h/mL | AUC(0-t) ([11]; plasma, oral, AUC0 − 24, Mean (±SD), Mod (n = 3), dose normalized to 2 mg): 312 ng·h/mL | AUC(0-t) ([11]; plasma, oral, AUC0 − 24, Mean (±SD), Norm (n = 10), dose normalized to 2 mg): 469 ng·h/mL | AUC(0-t) ([11]; plasma, oral, AUC0 − 24, Mean (±SD), Sev (n = 3), dose normalized to 2 mg): 240 ng·h/mL | Cmax ([11]; plasma, oral, Cmax, Geo mean (%CV), Mild (n = 6), dose normalized to 2 mg): 26.2 ng/mL | Cmax ([11]; plasma, oral, Cmax, Geo mean (%CV), Mod (n = 3), dose normalized to 2 mg): 16.8 ng/mL | Cmax ([11]; plasma, oral, Cmax, Geo mean (%CV), Norm (n = 10), dose normalized to 2 mg): 26.2 ng/mL | Cmax ([11]; plasma, oral, Cmax, Geo mean (%CV), Sev (n = 3), dose normalized to 2 mg): 15.3 ng/mL | Cmax ([11]; plasma, oral, Cmax, Mean (±SD), Mild (n = 6), dose normalized to 2 mg): 29.5 ng/mL | Cmax ([11]; plasma, oral, Cmax, Mean (±SD), Mod (n = 3), dose normalized to 2 mg): 16.9 ng/mL | permeability [12]: high permeability | substrate of CYP enzymes ([12]; in vitro): not a substrate | substrate of human BCRP, MRP2, OATP1B1, OATP1B3, OATP2B1, OCT1 or MATE1 transporters ([12]; in vitro): not a substrate | substrate for P-gp and BSEP ([12]; not expected to be clinically relevant): substrate | confirmed PR or CR [13]: None of the patients | duration of pERK inhibition ([14]; after the Day 7 dose): over 24 hours | duration of pERK reduction ([14]; first dose 3 mg/kg, Day 1): more than 8 hours | excreted in the feces [15]: ≥ 81% | excreted in urine [15]: ≤ 19% | partial response (PR) ([16]; 9 patients with BRAF wt melanoma): 2 patients | overall objective response rate (ORR) ([16]; 14 patients with BRAF-mutant melanoma, 2 mg QD): 43% | complete responses (CRs) ([16]; 14 patients with BRAF-mutant melanoma): 2 | PRs ([16]; 26 evaluable pancreatic cancer patients): 2 | objective responses ([16]; 28 patients with colorectal cancer): no objective responses | specificity against a panel of 183 kinases [17]: specificity of trametinib was confirmed | TGI [18]: 75% | MTD [19]: 3 mg QD | recommended phase 2 dose (RP2D) [19]: 2 mg QD | terminal half-life ([20]; after single dose administration): 5.3 days | volume of distribution (Vd) ([20]; following an IV microdose): 1060 L | plasma IV clearance ([20]; human, in vivo, iv): 3.21 L/h | plasma IV clearance as share of liver blood flow ([20]; human, in vivo, iv): approximately 1% | half-life ([20]; patients with normal liver function): approximately 4 days | absolute oral bioavailability ([20]; single 2 mg tablet relative to co-administered IV microdose): 72% | decrease in AUC(0-∞) with a high-fat, high-calorie meal ([20]; single dose, vs fasted): 10% | decrease in Cmax with a high-fat, high-calorie meal ([20]; single dose, vs fasted): 70% | median inhibition of pERK ([21]; BRAF or NRAS mutation-positive metastatic melanoma): 62% | median increase in p27 [21]: 175% | median inhibition of Ki67 [21]: 83% | inhibitor of P-gp, BCRP, OATP1B1, OATP1B3, OAT1, OAT3, OCT2 and MATE1 ([22]; at systemic concentrations that are not clinically relevant): in vitro inhibitor | inhibitor of MRP2 or BSEP [22]: not an inhibitor | grade 4 rash AE ([23]; 2 mg monotherapy, five studies): four patients | LFT changes grade 3 events [23, 25]: 26 | LFT changes grade 4 events [23, 25]: 6 patients | grade 1 or 2 pneumonitis ([23]; 2 mg monotherapy): three subjects | grade 3 diarrhea ([23]; 2 mg monotherapy): 17 patients | grade 3 pneumonitis ([23]; 2 mg monotherapy): six | grade 3 visual disorders ([23]; 2 mg monotherapy): six patients | grade 4 diarrhea ([23]; 2 mg monotherapy): none | grade 4 visual disorder ([23]; 2 mg monotherapy): one patient | cases of RPED ([23]; entire trametinib program as of 23 June 2013, monotherapy or combination): 14 cases | cases of RPED ([23]; integrated safety population, 2 mg once daily, five studies): five cases
